For the data set, the system named is Dkk1-LRP5-TCF-Luciferase. The experiment in a line: Functional Dkk1-LRP5-TCF-Luciferase Assay in U2OS Cells. The conditions noted are these: for fold induction at 2 µM / fold induction at 20 µM / EC50: Homo sapiens, U2OS; for fold induction at 2 µM: read-out: B = TCF ACTIVITY/DMSO CONTROL Fold induction @ 2.0 uM, 2.0 uM compound; for fold induction at 20 µM: read-out: C = TCF ACTIVITY/DMSO CONTROL Fold induction @ 20.0 uM, 20.0 uM compound; for A = MAX FOLD Induction/DMSO CONTROL: maximum fold induction over DMSO control.

Experimental: Biological Evaluation—Functional Dkk1-LRP5-TCF-Luciferase Assay in U2OS Cells
Frozen U2OS-Dkk1-HTS Reporter cells generation: U2OS Human Bone derived cells (Osteosarcoma) are grown in McCoy's 5A Medium (Modified), with L -glutamine (GIBCO Cat No. 16600-082)+1% Pen-Strep+5% FBS) plated at 1×10^7 cells/T175 cm flask. The next day, the cells are co-transfected overnight with the following plasmids: (a) Test reporter (16×TCF-TK-FireFly-Luci), (b) Internal Control Reporter (TK-Renilla-Luci), (c) Wnt3a and (d) Dkk1. GIBCO's Lipofectamine 2000 and OptiMEM are used for the transfection. After a minimum of 4 hr of transfection at 37° C., the plasmid-transfected cells are trypsinized, counted, and suspended in freezing medium (95% FBS+5% DMSO). The reporter cells are frozen at 1×10^7/ml concentrations, aliquoted into 0.5 ml or 2.5 ml/tube and stored at 70° C.
The following day, test compounds are added under HTS setup by Plate Track into 384 well plates (white, TC treated, Falcon plate) such that the final concentration of the compounds in 20 μL/well cell will be 5 μg/ml (final concentration of DMSO=0.25% and final compound concentration=20 μM). Vials of frozen reporter cells are thawed by warming the vial in a 37° C. water bath for 60-120 seconds with some shaking until the cells formed a suspension. The thawed cells are transferred into a cold 50 ml (or larger) tube and mixed well by gentle pipetting. The appropriate amount of cold Phenol Red Free RPMI medium-1640 (GIBCO, Cat #11835-030) with L-glutamine is added, both with ˜5% FBS (GIBCO-BRL, Cat. #16000-044), so that 20 μl of the final cell suspension will contain ˜5,000 cells. The cell dilution is done such that the final concentration of FBS is ˜5%.
Diluted cells (20 μl) are added into each well in a 384 well plate. The plate is incubated at 37° C. under 5% CO2 for ˜20 h. Bright-Glo substrate, 2.5 μl/well is added, and the Fire Fly Luciferase is measured using VLUX (60 second exposure) immediately after the substrate is added. Test compounds are dissolved in DMSO (100%) and added to specified wells. Raw luciferase signal data obtained as relative luminescence units (RLUs) for the test compounds are normalized to the signal of the mean of the sample reporter cell plate with DMSO.

`NCC1CCN(c2nccc(-c3ccc4cc(CN5CCCCC5)ccc4c3)n2)CC1` [1-(1-{4-[6-(piperidin-1-ylmethyl)-2-naphthyl]pyrimidin-2-yl}piperidin-4-yl)methanamine]: the fold induction at 2 µM was found to be 1.4.
With `N#Cc1ccc(C(=O)N[C@H]2CCN(c3nccc(-c4ccc5ccccc5c4)n3)C2)cc1` [4-cyano-N-{(3S)-1-[4-(2-naphthyl)pyrimidin-2-yl]pyrrolidin-3-yl}benzamide], the fold induction at 2 µM amounted to 0.84 and the fold induction at 20 µM worked out at 1.24.
With `c1ccc(N2CCN(c3nccc(-c4ccc5ccccc5c4)n3)CC2)nc1` [4-(2-naphthyl)-2-(4-pyridin-2-ylpiperazin-1-yl)pyrimidine], the fold induction at 2 µM was 1.8.
As for `c1cnc(N2CCN(c3nccc(-c4ccc5ccccc5c4)n3)CC2)nc1` [4-(2-naphthyl)-2-(4-pyrimidin-2-ylpiperazin-1-yl)pyrimidine], the fold induction at 2 µM is 1.02 and the fold induction at 20 µM is 1.24.
Turning to `CN1CCN([C@H]2CCN(c3nccc(-c4ccc5ccccc5c4)n3)C2)CC1` [2-[(3S)-3-(4-methylpiperazin-1-yl)pyrrolidin-1-yl]-4-(2-naphthyl)pyrimidine], the midpoint of the response, the EC50, lay at 0.696 µM; the fold induction at 2 µM worked out at 5.69; the fold induction at 20 µM was 0.01; the “A = MAX FOLD Induction/DMSO CONTROL” value came out at 7.175 fold.
In the case of `c1ccc2cc(-c3ccnc(N4CCC5(CCNCC5)C4)n3)ccc2c1` [2-[4-(2-naphthyl)pyrimidin-2-yl]-2,8-diazaspiro[4.5]decane], the fold induction at 2 µM turned out to be 1.7.
As for `c1ccc2cc(-c3ccnc(N4CC[C@@H](CN5CCCCC5)C4)n3)ccc2c1` [4-(2-naphthyl)-2-[(3S)-3-(piperidin-1-ylmethyl)pyrrolidin-1-yl]pyrimidine], the fold induction at 2 µM worked out at 1.34 and the fold induction at 20 µM is 1.06.
Consider `CCNC(=O)N1CCCN(c2nccc(-c3ccc4ccccc4c3)n2)CC1` [N-ethyl-4-[4-(2-naphthyl)pyrimidin-2-yl]-1,4-diazepane-1-carboxamide], for which the EC50 was found to be 12.7 µM, the fold induction at 20 µM was 2.58 and the “A = MAX FOLD Induction/DMSO CONTROL” value came to 1.640 fold.
On to `NC1CCCN(c2nccc(-c3ccc4ccccc4c3)n2)CC1` (stereo not shown) [1-[4-(2-naphthyl)pyrimidin-2-yl]azepan-4-amine], for which the fold induction at 2 µM was 1.95.
As to `CO[C@H]1CCN(c2nccc(-c3ccc4ccccc4c3)n2)C1` [2-[(3S)-3-methoxypyrrolidin-1-yl]-4-(2-naphthyl)pyrimidine], it took 2.58 µM to reach a half-maximal effect (EC50), the fold induction at 2 µM is 1.48, the fold induction at 20 µM came to 2.27 and the “A = MAX FOLD Induction/DMSO CONTROL” value came out at 1.755 fold.
In the case of `O=Cc1ccc2cc(-c3ccnc(N4CCC(CNC(=O)C(F)(F)F)CC4)n3)ccc2c1` [2,2,2-trifluoro-N-({1-[4-(6-formyl-2-naphthyl)pyrimidin-2-yl]piperidin-4-yl}methyl)acetamide], the fold induction at 2 µM turned out to be 1.11 and the fold induction at 20 µM was 0.04.
`CCNC(=O)N[C@H]1CC[C@H](Nc2nccc(-c3ccc4ccccc4c3)n2)CC1` [N-ethyl-N′-(trans-4-{[4-(2-naphthyl)pyrimidin-2-yl]amino}cyclohexyl)urea]: the fold induction at 2 µM is 2.84, the fold induction at 20 µM worked out at 2.35 and the “A = MAX FOLD Induction/DMSO CONTROL” value came to 2.740 fold.
`O=C(c1ccccc1)N1CC[C@@H](Nc2nccc(-c3ccc4ccccc4c3)n2)C1` [N-[(3R)-1-benzoylpyrrolidin-3-yl]-4-(2-naphthyl)pyrimidin-2-amine]: the fold induction at 2 µM amounted to 1.84.
In the case of `NC[C@H]1CC[C@H](c2nccc(-c3ccc4ccccc4c3)n2)CC1` [1-[trans-4-(4-naphthalen-2-ylpyrimidin-2-yl)cyclohexyl]methanamine], the fold induction at 2 µM was 3.5.
Regarding `NC[C@H]1CCCN(c2nccc(-c3ccc4ccccc4c3)n2)CC1` [1-{(4S)-1-[4-(2-naphthyl)pyrimidin-2-yl]azepan-4-yl}methanamine], the response was half-maximal at 1.06 µM (EC50), the fold induction at 2 µM worked out at 3.86 and the “A = MAX FOLD Induction/DMSO CONTROL” value came to 3.640 fold.
Turning to `CN(c1nccc(-c2ccc3ccccc3c2)n1)C1CCN(C=O)CC1` [4-{methyl[4-(2-naphthyl)pyrimidin-2-yl]amino}piperidine-1-carbaldehyde], the fold induction at 2 µM stood at 1.73 and the fold induction at 20 µM came out at 1.29.
Consider `O=C([C@@H]1CCCN1c1nccc(-c2ccc3ccccc3c2)n1)N1CCCCC1` [4-(2-naphthyl)-2-[(2S)-2-(piperidin-1-ylcarbonyl)pyrrolidin-1-yl]pyrimidine], for which the fold induction at 2 µM is 1.91.
For the molecule `c1cnc(NCC2CCN(c3nccc(-c4ccc5ccccc5c4)n3)CC2)nc1` [N-({1-[4-(2-naphthyl)pyrimidin-2-yl]piperidin-4-yl}methyl)pyrimidin-2-amine], the fold induction at 2 µM turned out to be 1.28 and the fold induction at 20 µM was found to be 1.48.
In the case of `CC(C)(C)NC[C@@H]1CCN(c2nccc(-c3ccc4ccccc4c3)n2)C1` [2-methyl-N-({(3S)-1-[4-(2-naphthyl)pyrimidin-2-yl]pyrrolidin-3-yl}methyl)propan-2-amine], the fold induction at 2 µM worked out at 2.44, the fold induction at 20 µM came out at 0.06 and the “A = MAX FOLD Induction/DMSO CONTROL” value was 4.610 fold.
For the molecule `Cc1ccc(S(=O)(=O)N2CCC(CNc3nccc(-c4ccc5ccccc5c4)n3)CC2)cc1` [N-({1-[(4-methylphenyl)sulfonyl]piperidin-4-yl}methyl)-4-(2-naphthyl)pyrimidin-2-amine], the fold induction at 2 µM was 1.17 and the fold induction at 20 µM was found to be 0.92.
As to `CN(C)CCN1CCN(c2nccc(-c3ccc4ccccc4c3)n2)CC1` [N,N-dimethyl-2-{4-[4-(2-naphthyl)pyrimidin-2-yl]piperazin-1-yl}ethanamine], the fold induction at 2 µM was 2.55, the fold induction at 20 µM was 0.01 and the “A = MAX FOLD Induction/DMSO CONTROL” value was found to be 2.440 fold.
Turning to `c1ccc2cc(-c3ccnc(N4CC[C@@H]5CNC[C@@H]5C4)n3)ccc2c1` [(3aR,7aS)-5-[4-(2-naphthyl)pyrimidin-2-yl]octahydro-1H-pyrrolo[3,4-c]pyridine], the fold induction at 2 µM was 1.8.
Turning to `O=C(NC1CCCCC1)N1CCC(Nc2nccc(-c3ccc4ccccc4c3)n2)CC1` [N-cyclohexyl-4-{[4-(2-naphthyl)pyrimidin-2-yl]amino}piperidine-1-carboxamide], the fold induction at 20 µM turned out to be 1.45.
As to `CN(C)C(=O)[C@H]1CCCN1c1nccc(-c2ccc3ccccc3c2)n1` [N,N-dimethyl-1-[4-(2-naphthyl)pyrimidin-2-yl]-D-prolinamide], the fold induction at 2 µM came out at 1.02 and the fold induction at 20 µM worked out at 1.2.
For the molecule `CC(C)CNCC1CCN(c2nccc(-c3ccc4ccccc4c3)n2)CC1` [2-methyl-N-({1-[4-(2-naphthyl)pyrimidin-2-yl]piperidin-4-yl}methyl)propan-1-amine], the fold induction at 2 µM stood at 1.4, the fold induction at 20 µM came out at 0.14 and the “A = MAX FOLD Induction/DMSO CONTROL” value turned out to be 1.480 fold.
Turning to `CNC[C@@H]1CCN(c2nccc(-c3ccc4ccccc4c3)n2)C1` [N-methyl-1-{(3S)-1-[4-(2-naphthyl)pyrimidin-2-yl]pyrrolidin-3-yl}methanamine], the EC50 was 2.35 µM, the fold induction at 2 µM is 2.74, the fold induction at 20 µM stood at 0.503 and the “A = MAX FOLD Induction/DMSO CONTROL” value is listed as 4.773 fold.
With `c1ccc2cc(-c3ccnc(N4CCC(Cn5ccnc5)C4)n3)ccc2c1` (stereo not shown) [2-[3-(1H-imidazol-1-ylmethyl)pyrrolidin-1-yl]-4-(2-naphthyl)pyrimidine], the fold induction at 2 µM was determined as 1.28 and the fold induction at 20 µM came to 0.38.
On the same counts, the results for `CC(C)(C)OC(=O)N1CC(CNc2nccc(-c3ccc4ccccc4c3)n2)C1` [tert-butyl 3-({[4-(2-naphthyl)pyrimidin-2-yl]amino}methyl)azetidine-1-carboxylate] are 1.8 and 1.02.
On to `CC(C)(C)OC(=O)N[C@H](C1CCN(c2nccc(-c3ccc4ccccc4c3)n2)CC1)C(C)(C)O` [tert-butyl ((1R)-2-hydroxy-2-methyl-1-{1-[4-(2-naphthyl)pyrimidin-2-yl]piperidin-4-yl}propyl)carbamate], for which the fold induction at 2 µM was determined as 1.79.
As to `CN(CCCO)[C@H]1CCN(c2nccc(-c3ccc4ccccc4c3)n2)C1` [3-(methyl{(3S)-1-[4-(2-naphthyl)pyrimidin-2-yl]pyrrolidin-3-yl}amino)propan-1-ol], the fold induction at 2 µM is 1.1.
Turning to `O=C1CN([C@@H]2CCN(c3nccc(-c4ccc5ccccc5c4)n3)C2)CCN1` [4-{(3R)-1-[4-(2-naphthyl)pyrimidin-2-yl]pyrrolidin-3-yl}piperazin-2-one], the EC50 turned out to be 5.74 µM, the fold induction at 2 µM was determined as 1.25, the fold induction at 20 µM was 2.33 and the “A = MAX FOLD Induction/DMSO CONTROL” value is 2.874 fold.
For `NCC1CCN(c2ncc(-c3ccc4ccccc4c3)cn2)CC1` [1-{1-[5-(2-naphthyl)pyrimidin-2-yl]piperidin-4-yl}methanamine], a half-maximal response (EC50) required 1.2 µM, the fold induction at 2 µM was 3.1 and the “A = MAX FOLD Induction/DMSO CONTROL” value came to 2.900 fold.
With `CN(C)[C@H]1CCN([C@@H]2CCN(c3nccc(-c4ccc5ccccc5c4)n3)C2)C1` [(3S,3′R)-N,N-dimethyl-1′-[4-(2-naphthyl)pyrimidin-2-yl]-1,3′-bipyrrolidin-3-amine], it took 1.11 µM to reach a half-maximal effect (EC50), the fold induction at 2 µM was determined as 2.64 and the “A = MAX FOLD Induction/DMSO CONTROL” value turned out to be 3.175 fold.
As to `NCC1CCN(Cc2nccc(-c3ccc4ccccc4c3)n2)CC1` [1-(1-{[4-(2-naphthyl)pyrimidin-2-yl]methyl}piperidin-4-yl)methanamine], the fold induction at 2 µM came to 1.41 and the fold induction at 20 µM came to 1.77.
In the case of `OCCC1CCN(c2nccc(-c3ccc4ccccc4c3)n2)CC1` [2-{1-[4-(2-naphthyl)pyrimidin-2-yl]piperidin-4-yl}ethanol], the fold induction at 2 µM came out at 1.54, the fold induction at 20 µM is 1.64 and the “A = MAX FOLD Induction/DMSO CONTROL” value amounted to 1.840 fold.
